The record followed here is ChEMBL document CHEMBL5113482, “Discovery of fused benzimidazole-imidazole autophagic flux inhibitors for treatment of triple-negative breast cancer” (Eur J Med Chem, 2022).

Calls of active or inactive are those of the source. The rule behind the calls is not given here.

The test system of experiment [1] is MDA-MB-231. The experiment in a line: Cell cycle arrest in human MDA-MB-231 cells assessed as reduction in CDK2 expression measured after 48 hrs by Western blot analysis. Type of experiment: functional, cell-based. To be noted: dose 5-20 µM, DDE = dose-dependent effect. Background: In western blotting, separated proteins are transferred to a membrane and probed.

Experiment [2] relates to MDA-MB-231. The experiment in a line: Induction of mitochondrial membrane potential loss in human MDA-MB-231 cells at 20 uM measured after 48 hrs by JC-1 staining based assay relative to control. Type of experiment: functional.
For experiment [3], the system named is MDA-MB-231. The experiment in a line: Antitumor activity against human MDA-MB-231 cells xenografted in ip dosed NOD/SCID mouse assessed as upregulation of p62 expression administered at 3 days interval for 24 days and measured on day 25 by Western blot analysis. Type of experiment: functional, organism-based. To be noted: dose 5-15 mg/kg, time 25.0 day, DDE = dose-dependent effect.

Experiment [4] concerns MDA-MB-231. The experiment in a line: Cell cycle arrest in human MDA-MB-231 cells assessed as increase in CHK2 phosphorylation at Thr 68 residue measured after 48 hrs by Western blot analysis. It is filed as functional, cell-based. The note with it: dose 5-20 µM, DDE = dose-dependent effect.
In experiment [5] the test system is MDA-MB-468. The experiment in a line: Cell cycle arrest in human MDA-MB-468 cells assessed as increase in CHK2 phosphorylation at Thr 68 residue measured after 48 hrs by Western blot analysis. Type of experiment: functional, cell-based. To be noted: dose 5-20 µM, DDE = dose-dependent effect.
Experiment [6] concerns MDA-MB-231. The experiment in a line: Cell cycle arrest in human MDA-MB-231 cells assessed as reduction in CDK1 expression measured after 48 hrs by Western blot analysis. Type of experiment: functional, cell-based. The note with it: dose 5-20 µM, DDE = dose-dependent effect.
Experiment [7] has as its system MDA-MB-231. The experiment in a line: Induction of DNA damage in human MDA-MB-231 cells assessed as reduction in BRCA2 expression measured after 6 to 48 hrs by Western blot analysis. It is filed as functional, cell-based. To be noted: dose 5-20 µM, time 6-48 hrs, DDE = dose-dependent effect.
Experiment [8] deals with MDA-MB-468. The experiment in a line: Induction of apoptosis in human MDA-MB-468 cells assessed as increase in cleaved caspase-3 expression measured after 48 hrs by Western blot analysis. Type of experiment: functional, cell-based. To be noted: dose 5-20 µM, DDE = dose-dependent effect.
The next experiment has as its system SCC-25. The experiment in a line: Antiproliferative activity against human SCC-25 cells assessed as cell growth inhibition measured after 48 hrs by MTT assay. It is filed as functional, cell-based. To be noted: SCC-25, 48 h.
Experiment [9] deals with MDA-MB-468. The experiment in a line: Antiproliferative activity against human MDA-MB-468 cells assessed as reduction in cell count by microscopy. Type of experiment: functional, cell-based.
Experiment [10] concerns MDA-MB-231. The experiment in a line: Induction of apoptosis in human MDA-MB-231 cells assessed as increase in Bim expression measured after 48 hrs by Western blot analysis. Type of experiment: functional, cell-based. The note with it: dose 5-20 µM, DDE = dose-dependent effect.
Experiment [11] concerns MDA-MB-231. The experiment in a line: Inhibition of autophagic flux in human MDA-MB-231 cells assessed as increase in nuclear p62 expression measured after 48 hrs by Western blot analysis. Type of experiment: functional, cell-based. The note with it: dose 5-20 µM, DDE = dose-dependent effect.
Experiment [12] has as its system MDA-MB-231. The experiment in a line: Inhibition of colony formation in human MDA-MB-231 cells at 5 to 20 umol/l pretreated for 48 hrs followed by replacement of fresh medium and measured after 15 days by crystal violet staining based assay. It is filed as functional, cell-based. The note with it: dose 5-20 µmol/L.
Experiment [13] has as its system MDA-MB-468. The experiment in a line: Inhibition of colony formation in human MDA-MB-468 cells at 5 to 20 umol/l pretreated for 48 hrs followed by replacement of fresh medium and measured after 15 days by crystal violet staining based assay. Type of experiment: functional, cell-based. The note with it: dose 5-20 µmol/L.
Experiment [14] relates to MDA-MB-468. The experiment in a line: Inhibition of autophagic flux in human MDA-MB-468 cells assessed as reduction in polyubiquitinated H2A expression measured after 48 hrs by Western blot analysis. It is filed as functional, cell-based.
For experiment [15], the system named is MDA-MB-231. The experiment in a line: Cell cycle arrest in human MDA-MB-231 cells assessed as increase in p21 expression measured after 48 hrs by Western blot analysis. Type of experiment: functional, cell-based. To be noted: dose 5-20 µM, DDE = dose-dependent effect.
Experiment [16] deals with MDA-MB-468. The experiment in a line: Cell cycle arrest in human MDA-MB-468 cells assessed as increase in CHK1 phosphorylation at Ser 345 residue measured after 48 hrs by Western blot analysis. It is filed as functional, cell-based. To be noted: dose 5-20 µM, DDE = dose-dependent effect.
Experiment [17] relates to MDA-MB-231. The experiment in a line: Induction of apoptosis in human MDA-MB-231 cells assessed as increase in cleaved caspase-3 expression measured after 48 hrs by Western blot analysis. It is filed as functional, cell-based. To be noted: dose 5-20 µM, DDE = dose-dependent effect.
In experiment [18] the test system is MDA-MB-468. The experiment in a line: Induction of apoptosis in human MDA-MB-468 cells assessed as increase in late apoptotic cells measured after 48 hrs by Annexin V-FITC/propidium iodide staining based flow cytometry. Type of experiment: functional, cell-based. To be noted: dose 5-20 µM, DDE = dose-dependent effect.
Experiment [19] deals with T1, Structural maintenance of chromosomes protein 1A (Homo sapiens) (UniProt Q14683).
T1 sequence (whole entry): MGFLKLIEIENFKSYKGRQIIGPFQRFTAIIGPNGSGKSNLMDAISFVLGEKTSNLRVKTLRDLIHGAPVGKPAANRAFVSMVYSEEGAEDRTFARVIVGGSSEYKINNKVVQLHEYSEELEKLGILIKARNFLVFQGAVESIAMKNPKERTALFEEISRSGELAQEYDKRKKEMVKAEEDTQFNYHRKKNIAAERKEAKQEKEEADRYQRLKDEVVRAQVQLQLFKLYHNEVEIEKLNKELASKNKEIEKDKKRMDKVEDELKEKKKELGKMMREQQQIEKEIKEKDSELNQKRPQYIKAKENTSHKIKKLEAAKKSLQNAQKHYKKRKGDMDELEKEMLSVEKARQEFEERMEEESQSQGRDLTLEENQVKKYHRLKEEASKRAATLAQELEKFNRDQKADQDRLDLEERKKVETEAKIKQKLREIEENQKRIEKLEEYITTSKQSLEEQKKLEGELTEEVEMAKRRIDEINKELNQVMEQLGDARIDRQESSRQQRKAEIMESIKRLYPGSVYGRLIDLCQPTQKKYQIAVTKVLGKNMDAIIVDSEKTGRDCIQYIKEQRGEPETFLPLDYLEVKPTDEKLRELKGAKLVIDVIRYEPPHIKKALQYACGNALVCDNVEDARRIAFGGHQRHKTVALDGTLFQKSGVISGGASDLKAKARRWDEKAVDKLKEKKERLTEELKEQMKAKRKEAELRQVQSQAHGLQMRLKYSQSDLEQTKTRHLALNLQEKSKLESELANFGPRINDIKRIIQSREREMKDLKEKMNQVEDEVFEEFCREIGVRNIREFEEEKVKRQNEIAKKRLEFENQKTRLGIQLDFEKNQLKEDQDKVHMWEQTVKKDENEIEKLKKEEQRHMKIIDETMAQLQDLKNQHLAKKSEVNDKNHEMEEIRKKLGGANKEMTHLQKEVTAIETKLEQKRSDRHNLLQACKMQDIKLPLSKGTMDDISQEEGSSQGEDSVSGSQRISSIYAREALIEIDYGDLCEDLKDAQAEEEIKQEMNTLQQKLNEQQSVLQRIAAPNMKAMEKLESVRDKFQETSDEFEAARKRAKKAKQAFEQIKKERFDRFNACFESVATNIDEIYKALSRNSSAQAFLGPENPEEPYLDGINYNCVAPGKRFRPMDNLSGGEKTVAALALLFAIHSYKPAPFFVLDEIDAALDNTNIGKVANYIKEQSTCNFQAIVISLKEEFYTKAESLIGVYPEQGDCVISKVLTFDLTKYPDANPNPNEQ
The experiment in a line: Activation of SMC1 phosphorylation in human MDA-MB-231 cells at 5 to 20 uM measured after 6 to 48 hrs by Western blot analysis. It is filed as cell-based. The note with it: filed as activator, dose 5-20 µM, time 6-48 hrs.

For experiment [20], the system named is MDA-MB-231. The experiment in a line: Antitumor activity against human MDA-MB-231 cells xenografted in NOD/SCID mouse assessed as reduction in tumor size at 5 to 15 mg/kg, ip administered at 3 days interval for 24 days and measured on day 25. Type of experiment: functional, organism-based. To be noted: dose 5-15 mg/kg, time 25.0 day. In general terms: A xenograft is tissue or cells of one species grown in another, often human tumour cells in immunodeficient mice.

Experiment [21] has as its target Serine-protein kinase ATM (Homo sapiens) (UniProt Q13315). The experiment in a line: Activation of ATM phosphorylation in human MDA-MB-468 cells at 5 to 20 uM measured after 6 to 48 hrs by Western blot analysis. It is filed as cell-based. The note with it: filed as activator, dose 5-20 µM, time 6-48 hrs.

Serine-protein kinase ATM (Homo sapiens), sequence (Q13315 whole entry): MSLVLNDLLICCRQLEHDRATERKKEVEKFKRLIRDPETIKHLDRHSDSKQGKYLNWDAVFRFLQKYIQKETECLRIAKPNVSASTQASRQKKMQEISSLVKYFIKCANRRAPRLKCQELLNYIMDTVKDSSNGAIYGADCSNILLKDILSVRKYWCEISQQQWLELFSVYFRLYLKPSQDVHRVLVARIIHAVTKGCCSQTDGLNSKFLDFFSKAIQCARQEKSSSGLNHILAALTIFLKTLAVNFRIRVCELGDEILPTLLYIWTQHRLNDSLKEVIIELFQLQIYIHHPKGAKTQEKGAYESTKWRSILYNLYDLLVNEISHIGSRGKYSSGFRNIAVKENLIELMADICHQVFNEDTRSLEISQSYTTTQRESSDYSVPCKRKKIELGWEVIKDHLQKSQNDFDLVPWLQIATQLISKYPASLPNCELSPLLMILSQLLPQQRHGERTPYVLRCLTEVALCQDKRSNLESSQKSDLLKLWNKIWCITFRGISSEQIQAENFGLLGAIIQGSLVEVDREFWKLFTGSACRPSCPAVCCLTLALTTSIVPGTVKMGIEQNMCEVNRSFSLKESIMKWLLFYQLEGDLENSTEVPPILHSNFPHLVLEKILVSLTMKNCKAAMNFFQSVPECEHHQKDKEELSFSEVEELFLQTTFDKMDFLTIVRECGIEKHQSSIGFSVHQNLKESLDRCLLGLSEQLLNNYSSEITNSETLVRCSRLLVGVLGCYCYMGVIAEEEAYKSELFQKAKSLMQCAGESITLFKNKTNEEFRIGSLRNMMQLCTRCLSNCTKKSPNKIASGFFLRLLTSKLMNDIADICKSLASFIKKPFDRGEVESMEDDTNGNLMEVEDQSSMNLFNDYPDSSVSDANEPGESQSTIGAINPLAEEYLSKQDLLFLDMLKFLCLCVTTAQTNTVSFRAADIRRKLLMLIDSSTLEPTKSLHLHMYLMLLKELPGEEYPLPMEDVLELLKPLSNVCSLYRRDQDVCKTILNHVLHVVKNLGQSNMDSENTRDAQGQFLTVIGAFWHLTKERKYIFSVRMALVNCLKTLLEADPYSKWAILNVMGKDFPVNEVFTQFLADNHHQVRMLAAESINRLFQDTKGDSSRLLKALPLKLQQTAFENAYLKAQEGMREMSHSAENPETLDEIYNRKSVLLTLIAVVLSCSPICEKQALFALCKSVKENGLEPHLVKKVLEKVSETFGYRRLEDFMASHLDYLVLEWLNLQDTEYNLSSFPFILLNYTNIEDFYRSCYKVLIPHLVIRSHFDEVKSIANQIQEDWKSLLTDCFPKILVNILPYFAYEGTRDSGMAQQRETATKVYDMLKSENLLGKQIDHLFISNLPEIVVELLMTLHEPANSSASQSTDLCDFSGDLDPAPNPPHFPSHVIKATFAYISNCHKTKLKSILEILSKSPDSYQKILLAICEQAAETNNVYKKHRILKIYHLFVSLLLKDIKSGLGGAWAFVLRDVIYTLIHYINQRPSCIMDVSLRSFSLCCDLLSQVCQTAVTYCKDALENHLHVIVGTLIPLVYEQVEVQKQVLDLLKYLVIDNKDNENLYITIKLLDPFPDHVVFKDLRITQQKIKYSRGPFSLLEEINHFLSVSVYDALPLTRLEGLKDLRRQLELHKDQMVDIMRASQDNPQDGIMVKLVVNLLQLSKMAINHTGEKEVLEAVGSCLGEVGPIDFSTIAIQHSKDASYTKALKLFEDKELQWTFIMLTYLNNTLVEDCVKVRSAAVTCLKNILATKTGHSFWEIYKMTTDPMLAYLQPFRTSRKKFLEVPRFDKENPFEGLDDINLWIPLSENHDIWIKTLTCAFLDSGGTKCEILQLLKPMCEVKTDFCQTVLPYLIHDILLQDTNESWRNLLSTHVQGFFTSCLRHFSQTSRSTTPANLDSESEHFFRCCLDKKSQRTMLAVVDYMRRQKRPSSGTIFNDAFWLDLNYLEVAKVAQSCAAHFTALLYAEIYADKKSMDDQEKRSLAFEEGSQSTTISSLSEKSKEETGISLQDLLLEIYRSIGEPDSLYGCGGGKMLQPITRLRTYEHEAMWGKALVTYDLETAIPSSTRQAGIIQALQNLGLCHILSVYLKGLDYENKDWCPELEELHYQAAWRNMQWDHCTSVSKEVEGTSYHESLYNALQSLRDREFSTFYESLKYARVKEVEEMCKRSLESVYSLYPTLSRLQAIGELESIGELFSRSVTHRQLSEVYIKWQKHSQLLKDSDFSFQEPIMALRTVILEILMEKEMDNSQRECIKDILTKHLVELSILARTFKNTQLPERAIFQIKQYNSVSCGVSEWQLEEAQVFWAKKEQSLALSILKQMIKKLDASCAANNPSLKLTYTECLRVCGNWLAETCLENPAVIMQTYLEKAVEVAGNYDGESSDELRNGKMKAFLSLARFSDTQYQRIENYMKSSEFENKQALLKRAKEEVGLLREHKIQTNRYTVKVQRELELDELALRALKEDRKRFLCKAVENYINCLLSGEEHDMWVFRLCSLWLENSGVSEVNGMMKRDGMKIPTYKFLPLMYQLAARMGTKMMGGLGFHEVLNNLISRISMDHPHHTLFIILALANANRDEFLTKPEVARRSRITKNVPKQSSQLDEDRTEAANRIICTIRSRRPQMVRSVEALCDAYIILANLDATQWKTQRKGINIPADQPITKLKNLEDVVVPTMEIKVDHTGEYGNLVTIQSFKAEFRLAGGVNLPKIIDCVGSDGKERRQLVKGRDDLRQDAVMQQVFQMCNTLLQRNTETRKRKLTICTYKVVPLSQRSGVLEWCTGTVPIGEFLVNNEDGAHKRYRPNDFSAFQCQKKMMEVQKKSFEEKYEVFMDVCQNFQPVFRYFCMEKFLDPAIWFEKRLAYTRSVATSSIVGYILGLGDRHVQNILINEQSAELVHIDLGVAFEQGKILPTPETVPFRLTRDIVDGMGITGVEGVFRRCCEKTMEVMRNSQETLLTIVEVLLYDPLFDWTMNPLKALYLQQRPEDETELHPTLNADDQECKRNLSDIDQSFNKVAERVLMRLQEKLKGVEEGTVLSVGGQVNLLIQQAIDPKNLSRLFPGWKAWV

Take `O=C(NC1CCCCC1)c1[nH]cnc1-c1nc2ccccc2[nH]1`: the Activity result was “Dde” with MDA-MB-231 [1]; 50% in the experiment with MDA-MB-231 [2]; “Dde” in the experiment with MDA-MB-231 [3]; “Dde” with MDA-MB-231 [4]; “Dde” in the experiment on MDA-MB-468 [5]; “Dde” in the experiment on MDA-MB-231 [6]. Further, the Activity result with MDA-MB-231 [7], in the experiment on MDA-MB-468 [8], in the experiment on MDA-MB-231 [10], with MDA-MB-231 [15], in the experiment on MDA-MB-468 [16] and in the experiment with MDA-MB-231 [17] was “Dde” each time. Besides, in the experiment with MDA-MB-468 [18], the Activity entry was “Dde”. Also, the IC50 with SCC-25 turned out to be 18.6 µM. Also, the outcome (in the experiment on MDA-MB-468 [9]; in experiment [19]; in the experiment with MDA-MB-231 [20]; in [21]) was Active. The inhibition entry with MDA-MB-231 [11] was “Dde”. Further, the inhibition result in the experiment on MDA-MB-231 [12], in the experiment with MDA-MB-468 [13] and with MDA-MB-468 [14] was “Active” each time.

What is called IC50 is the concentration needed to halve the response being measured.
